“Also recorded” adds a separate entry of the source.

Experiment [1] has as its system Fungi Mix: standard ASTM G 21-09 species extended by Fusarium solani and Aspergillus hiratsukae. The experiment is described as follows: Gypsum board hand sheet efficacy testing (core protection), ASTM G 21-09. Particulars: for Fungal growth rating, Fungi Mix: in gypsum core, 4 weeks at 28-30° C.; for Overall efficacy in gypsum board test, in words: tested concentration range 25-300 ppm, interpretation of tables 2 and 3. The text has this: (§1) For examination of the antifungal performance of the TBZ/BBIT combinations testing directly in gypsum boards provides realistic and practically relevant data for evaluation. […] For this purpose, a typical slurry recipe as given below for board production is used. Gypsum Board recipe:
(§2) The slurry is formed by mixing the dry components and the wet components together. The slurry is then mixed to achieve a homogeneous consistency. The fungicides are incorporated during preparation of the gypsum slurry by adding and mixing the fungicidal mixtures. For sandwiching the gypsum core, untreated cardboard (without fungicide) with a grammage of appr. 180 g/m^2 was used and after assembly of the plate the hand sheets are dried. The following antifungal compounds and respective formulations were used: • Thiabendazole • Butylbenzthiazole
(§3) For efficacy testing a test method of ASTM G 21 of 2009 was applied. As only change additional to the fungi mix as required by ASTM G 21-09, Fusarium solani and Aspergillus hiratsukae were included as further components of the mixed inoculum. According to this method, the manufactured gypsum boards as described above and after having been cut to an adequate size are placed on an agarplate and superficially are spoiled with fungal spores for a determined period of time of at the most 4 weeks. The respective total amount of actives in ppm based in gypsum/plaster (CaSO4(0.5 H2O) can be seen in the table.
(§4) Spore suspensions are produced for each fungi (spore concentrations of approximately 10^6/ml). Organisms which are included in ASTM G 21 comprise Aspergillus niger (ATCC 9642), Aureobasidium pullulans (ATCC 15233) Chaetomium globosum (ATCC 6205), Gliocladium virens (ATCC 6459) and Penicillium pinophilium (ATCC 11797) (as pure culture but also as mixed inoculum), however any other fungi species known to be able to grow in gypsum boards may be used in addition or instead. Mineral agar (according to ASTM G21 of 2009) was used as growth media in the agar plates. Before inoculation the gypsum board hand sheets are cut into pieces of appr. 5×5 cm.
(§5) For every concentration level, 3 test pieces are used in the test. Each sample is placed in a separate petri dish and then inoculated with the fungi. The samples are then incubated at 28-30° C. for 28 days. Pre-reading of the samples may be performed at approximately 10 days after inoculation. The activity of the treatments may be assessed visually, using a rating system of 0-4 for growth inhibition of fungal growth.
(§6) The reported results are recorded after 4 weeks testing at 28-30° C. according to the requirements of test method ASTM G 21 can be seen from Table 2: […]

In a further experiment the test system is Stachybotris chartarum. The experiment is described as above. Particulars: in gypsum core, 4 weeks at 28-30° C.
Text: as §1, §2, §3, §4, §5, §6

Setting [2] is: 25 ppm total actives based on gypsum/plaster.
[3] abbreviates: 50 ppm total actives based on gypsum/plaster.
Setting [4] is: 100 ppm total actives based on gypsum/plaster.
The mark [5] stands for this setting: 200 ppm total actives based on gypsum/plaster.
[6] abbreviates: 300 ppm total actives based on gypsum/plaster.

With `CO/C=C(/C(=O)OC)c1ccccc1Oc1cc(Oc2ccccc2C#N)ncn1` [AZO, Azoxystrobin], the “Fungal growth rating, Fungi Mix” value in experiment [1] (setting [2]), in experiment [1] (setting [3]), in experiment [1] (setting [4]), in experiment [1] (setting [5]) and in experiment [1] (setting [6]) was 4 (Heavy growth (60% to complete coverage)) each time. The “Overall efficacy in gypsum board test, in words” value (shortened to “Overall efficacy”) in experiment [1] is reported as “neither TBZ nor AZO alone are good enough to pass the ASTM G 21 test”. Further, the “Fungal growth rating, Stachybotris” value in the experiment on Stachybotris chartarum (setting [2]), in the experiment with Stachybotris chartarum (setting [3]), in the experiment on Stachybotris chartarum (setting [4]), in the experiment on Stachybotris chartarum (setting [5]) and in the experiment with Stachybotris chartarum (setting [6]) was 4 (Heavy growth (60% to complete coverage)) in each case.
On to `CCCCn1sc2ccccc2c1=O` [BBIT, 2-butyl-1,2-benzisothiazolin-3-one], for which the “Fungal growth rating, Fungi Mix” value in experiment [1] (setting [2]) is reported as 4 (Heavy growth (60% to complete coverage)); in experiment [1] (setting [3]), 4 (Heavy growth (60% to complete coverage)); in experiment [1] (setting [4]), 4 (Heavy growth (60% to complete coverage)); in experiment [1] (setting [5]), 2 (Light growth (10 to 30%)); in experiment [1] (setting [6]), 1 (Traces of growth (less than 10%)). Besides, the “Overall efficacy” value in experiment [1] is recorded as “better than TBZ, however still not fully satisfactory”. Moreover, the “Fungal growth rating, Stachybotris” value was 4 (Heavy growth (60% to complete coverage)) in the experiment with Stachybotris chartarum (setting [2]); 4 (Heavy growth (60% to complete coverage)) in the experiment with Stachybotris chartarum (setting [3]); 4 (Heavy growth (60% to complete coverage)) in the experiment with Stachybotris chartarum (setting [4]); 2 (Light growth (10 to 30%)) in the experiment with Stachybotris chartarum (setting [5]); 1 (Traces of growth (less than 10%)) with Stachybotris chartarum (setting [6]).
With `c1ccc2[nH]c(-c3cscn3)nc2c1` [TBZ, thiabendazole], the “Fungal growth rating, Fungi Mix” value in experiment [1] (setting [2]) is on record as 4 (Heavy growth (60% to complete coverage)); in experiment [1] (setting [3]), 4 (Heavy growth (60% to complete coverage)); in experiment [1] (setting [4]), 4 (Heavy growth (60% to complete coverage)); in experiment [1] (setting [5]), 4 (Heavy growth (60% to complete coverage)); in experiment [1] (setting [6]), 3 (Medium growth (30 to 60%)). The “Overall efficacy” value in experiment [1] is “not good enough for control of fungi growth; also recorded: neither TBZ nor AZO alone are good enough to pass the ASTM G 21 test”. In addition, the “Fungal growth rating, Stachybotris” value is 4 (Heavy growth (60% to complete coverage)) in the experiment with Stachybotris chartarum (setting [2]); 4 (Heavy growth (60% to complete coverage)) in the experiment with Stachybotris chartarum (setting [3]); 4 (Heavy growth (60% to complete coverage)) in the experiment with Stachybotris chartarum (setting [4]); 4 (Heavy growth (60% to complete coverage)) with Stachybotris chartarum (setting [5]); 3 (Medium growth (30 to 60%)) in the experiment on Stachybotris chartarum (setting [6]).

The values above are taken from US20220225616A1, “Antifungal Wallboards” (LANXESS Deutschland GmbH, priority 2019, published 2022).
